{
  "source": "patent EP2226323A1",
  "about": "“New tetrahydropyrazolo[3,4-c]isoquinolin-5-amine derivatives” (Almirall, S.A., priority 2009, dated 2010)",
  "data": [
    {"biological_target": "recombinant PDE4 enzyme", "test": "PDE4 assay: [3H] cAMP Scintillation Proximity Assay (SPA) of phosphodiesterase activity", "type": "biochemical", "conditions": "yeast extract of recombinant PDE4 enzyme; 30 nM [3H] cAMP; 1 hr at room temperature; pH 7.5", "procedure": "Measurement of Phosphodiesterase Activity was done using a [3H] cAMP Scintillation Proximity Assay (SPA) (GE Healthcare). Compounds to be tested were dissolved in DMSO at a stock concentration of 1 mM and serial dilutions were prepared in 50% DMSO to determine IC50s. The reactions were conducted in 96-well plates (Corning, Ref.3604) at room temperature, in 0.1 ml of reaction buffer containing (final concentrations): 50 mM Tris-HCl, pH 7.5, 8.3 mM MgCl2, 1.7 mM EGTA, 30 nM [3H] cAMP (approximately 150000 dpm/well) with or without the inhibitors. The reaction was initiated by adding yeast extract of recombinant PDE4 enzyme. Plates were shaken for 1 hr at room temperature and the incubation was terminated by adding 50 µl (0.5 mg /well) of SPA yttrium silicate beads (RPNQ 0150; GE Healthcare) in the presence of zinc sulfate. Plates were stored overnight in the dark and read on a TRILUX microtiter plate reader (Perkin Elmer).", "units": {"IC50": "nM"}, "values": [
      {"compound": "CC1(C)CCc2c(Nc3c(Cl)cncc3Cl)nc3c(c(O)nn3Cc3cccnc3)c2C1", "note": "[Example 8, 5-(3,5-Dichloropyridin-4-ylamino)-8,8-dimethyl-3-(pyridin-3-ylmethyl)-6,7,8,9-tetrahydro-3H-pyrazolo[3,4-c]isoquinolin-1-ol]", "IC50": 7.4},
      {"compound": "CC1(C)CCc2c(Nc3c(Cl)cncc3Cl)nc3c(c(O)nn3Cc3ccc(C(N)=O)cc3)c2C1", "note": "[Example 14, 4-((5-(3,5-Dichloropyridin-4-ylamino)-1-hydroxy-8,8-dimethyl-6,7,8,9-tetrahydro-3H-pyrazolo[3,4-c]isoquinolin-3-yl)methyl)benzamide]", "IC50": 5.17},
      {"compound": "CC1(C)CCc2c(Nc3c(Cl)cncc3Cl)nc3c(c(O)nn3CCCN3CCOCC3)c2C1", "note": "[Example 15, 5-(3,5-Dichloropyridin-4-ylamino)-8,8-dimethyl-3-(3-morpholinopropyl)-6,7,8,9-tetrahydro-3H-pyrazolo[3,4-c]isoquinolin-1-ol]", "IC50": 6.14},
      {"compound": "CC1(C)CCc2c(Nc3c(Cl)cncc3Cl)nc3[nH]nc(O)c3c2C1", "note": "[Example 1, 5-(3,5-Dichloropyridin-4-ylamino)-8,8-dimethyl-6,7,8,9-tetrahydro-3H-pyrazolo[3,4-c]isoquinolin-1-ol]", "IC50": 3.9},
      {"compound": "CC1(C)CCc2c(Nc3c(Cl)cncc3Cl)nc3c(c(O)nn3Cc3cccc(C#N)c3)c2C1", "note": "[Example 13, 3-((5-(3,5-Dichloropyridin-4-ylamino)-1-hydroxy-8,8-dimethyl-6,7,8,9-tetrahydro-3H-pyrazolo[3,4-c]isoquinolin-3-yl)methyl)benzonitrile]", "IC50": 2.35},
      {"compound": "Cn1nc(O)c2c3c(c(Nc4c(Cl)cncc4Cl)nc21)CCC(C)(C)C3", "note": "[Example 5, 5-(3,5-Dichloropyridin-4-ylamino)-3,8,8-trimethyl-6,7,8,9-tetrahydro-3H-pyrazolo[3,4-c]isoquinolin-1-ol]", "IC50": 17.1},
      {"compound": "CC1(C)CCc2c(Nc3c(Cl)cncc3Cl)nc3c(c(O)nn3Cc3cccc(C(=O)O)c3)c2C1", "note": "[Example 7, 3-((5-(3,5-Dichloropyridin-4-ylamino)-1-hydroxy-8,8-dimethyl-6,7,8,9-tetrahydro-3H-pyrazolo[3,4-c]isoquinolin-3-yl)methyl)benzoic acid]", "IC50": 3.1},
      {"compound": "CC1(C)CCc2c(Nc3c(Cl)cncc3Cl)nc3c(c(O)nn3CCCc3cccc(C(N)=O)c3)c2C1", "note": "[Example 17, 3-(3-(5-(3,5-Dichloropyridin-4-ylamino)-1-hydroxy-8,8-dimethyl-6,7,8,9-tetrahydro-3H-pyrazolo[3,4-c]isoquinolin-3-yl)propyl)benzamide]", "IC50": 2.1},
      {"compound": "CC1(C)CCc2c(Nc3c(Cl)cncc3Cl)nc3[nH]nc(N)c3c2C1", "note": "[Example 2, N^5-(3,5-Dichloropyridin-4-yl)-8,8-dimethyl-6,7,8,9-tetrahydro-3H-pyrazolo[3,4-c]isoquinoline-1,5-diamine]", "IC50": 62},
      {"compound": "CN(C)C(=O)c1cccc(S(=O)(=O)n2nc(O)c3c4c(c(Nc5c(Cl)cncc5Cl)nc32)CCC(C)(C)C4)c1", "note": "[Example 3, 3-(5-(3,5-Dichloropyridin-4-ylamino)-1-hydroxy-8,8-dimethyl-6,7,8,9-tetrahydro-3H-pyrazolo[3,4-c]isoquinolin-3-ylsulfonyl)-N, N-dimethylbenzamide]", "IC50": 16.8},
      {"compound": "CC1(C)CCc2c(Nc3c(Cl)cncc3Cl)nc3c(c(O)nn3CCCc3cccc(C#N)c3)c2C1", "note": "[Example 16, 3-(3-(5-(3,5-Dichloropyridin-4-ylamino)-1-hydroxy-8,8-dimethyl-6,7,8,9-tetrahydro-3H-pyrazolo[3,4-c]isoquinolin-3-yl)propyl)benzonitrile]", "IC50": 15.5},
      {"compound": "COc1cccc(Cn2nc(O)c3c4c(c(Nc5c(Cl)cncc5Cl)nc32)CCC(C)(C)C4)c1", "note": "[Example 4, 5-(3,5-Dichloropyridin-4-ylamino)-3-(3-methoxybenzyl)-8,8-dimethyl-6,7,8,9-tetrahydro-3H-pyrazolo[3,4-c]isoquinolin-1-ol]", "IC50": 11},
      {"compound": "CC1(C)CCc2c(Nc3c(Cl)cncc3Cl)nc3c(c(O)nn3CC(N)=O)c2C1", "note": "[Example 9, 2-(5-(3,5-Dichloropyridin-4-ylamino)-1-hydroxy-8,8-dimethyl-6,7,8,9-tetrahydro-3H-pyrazolo[3,4-c]isoquinolin-3-yl)acetamide]", "IC50": 18.8},
      {"compound": "CC1(C)CCc2c(Nc3c(Cl)cncc3Cl)nc3c(c(O)nn3Cc3cccc(C(N)=O)c3)c2C1", "note": "[Example 10, 3-((5-(3,5-Dichloropyridin-4-ylamino)-1-hydroxy-8,8-dimethyl-6,7,8,9-tetrahydro-3H-pyrazolo[3,4-c]isoquinolin-3-yl)methyl)benzamide]", "IC50": 2.3},
      {"compound": "Methyl 3-((5-(3,5-dichloropyridin-4-ylamino)-1-hydroxy-8,8-dimethyl-6,7,8,9-tetrahydro-3H-pyrazolo[3,4-c]isoquinolin-3-yl)methyl)benzoate [Example 6]", "IC50": 2},
      {"compound": "CC1(C)CCc2c(Nc3c(Cl)cncc3Cl)nc3c(c(O)nn3Cc3ccc(C(=O)O)cc3)c2C1", "note": "[Example 12, 4-((5-(3,5-Dichloropyridin-4-ylamino)-1-hydroxy-8,8-dimethyl-6,7,8,9-tetrahydro-3H-pyrazolo[3,4-c]isoquinolin-3-yl)methyl)benzoic acid]", "IC50": 2.4}
    ]}
  ]
}
